Data published in patent publication US8946201B2, “Methods for inhibiting TGF-β” (Saint Louis University, priority 2007, dated 2015).

Key:
[1] = test system: Smad2 nuclear translocation; assay: Smad2 nuclear translocation, indirect immunofluorescent staining, Mv1Lu cells; format: cell-based, mink; details: 50 μg/ml 1 hr, then 50 pM TGF-β1 30 min
Method: Cells were treated with increasing concentrations of cholesterol, as indicated (A, B, C), 50 μg protein/ml LDL (D), 5 μg protein/ml VLDL (D) or 50 μg/ml cholesterol (E) at 37° C. for 1 hr and then further incubated with 50 pM TGF-β1 for 30 min. […] Smad2 nuclear translocation was analyzed by indirect immunofluorescent staining using P-Smad2 antibody and rhodamine-labeled 2nd antibody (E). Rhodamine fluorescence represents P-Smad2 staining (a,b,c) whereas the nuclei were stained by DAPI staining (d,e,f).
For indirect immunofluorescent staining, cells grown on cover glass were fixed in cold 100% methanol and then incubated with antibody to P-Smad2 overnight. The antigen was visualized by incubation with Rhodamine-conjugated goat antibody to rabbit IgG followed by immunofluorescence microscopy.
To test this possibility, we determined the effect of cholesterol treatment on Smad2 phosphorylation and nuclear translocation, both of which are key signaling events, leading to TGF-β responsiveness. […] To determine the effect of cholesterol on Smad2 nuclear translocation, Mv1Lu cells were treated with 50 μg/ml cholesterol at 37° C. for 1 hr and then further incubated with and without 50 pM TGF-β1 at 37° C. for 30 min. These cells were subjected to immunofluorescent staining using anti-P-Smad2 antibody and nuclear DAPI (4′,6-diamidine-2-phenylindole dihydrochloride) staining.

[2] = test system: TβR-II; assay: TGF-β1-induced degradation of TβR-II, Western blot; format: cell-based
Method: (E) Cells were treated with several concentrations of cholesterol (a,b) or LDL (c,d) as indicated in the presence and absence of 1% β-CD at 37° C. for 1 hr and further incubated with 50 pM TGF-β for 1 hr. The cell lysates were then subjected to 7.5% SDS-PAGE and Western blot analysis using antibodies to TβR-II and α-actin (a,c). The relative intensities of TβR-II and α-actin on the blot were quantified by densitometry (b,d). The ratio of the relative intensities of TβR-II and α-actin in cells treated without TGF-β1 was taken as the 100% level of TβR-II.
(F, G) Cells were treated with or without 1 μM lovastatin/fluvastatin or nystatin (25 μg/ml)/cholesterol (50 μg/ml) at 37° C. for 16 hr or 1 hr, respectively. The treated cells were directly analyzed by sucrose density gradient ultracentrifugation analysis (F) or further incubated with 50 pM TGF-β at 37° C. for several time periods as indicated (G). Western blot analysis of the sucrose density gradient fractions (F) and of TGF-β1-treated cell lysates (G) was performed using antibody to TβR-II. The relative levels of TβR-II and α-actin were quantified by densitometry. Fractions ⅘ and 7 represent lipid raft/caveolae and non-lipid raft fractions, respectively. […] The quantitative data from three independent analyses is shown (G, bottom). […]
Cells grown to near confluence on 12-well cluster dishes were treated with cholesterol or LDL in serum-free DMEM (vol.=0.5 ml/well) at 37° C. for 1 hr. […] Treated cells were lysed and cell lysates were analyzed by 7.5% SDS-PAGE and Western blot analysis using anti-Smad2, anti-P-Smad2, anti-caveolin-1, anti-TβR-I (alk5) or anti-TβR-II antibodies as described previously (30). […]
Lipid raft/caveolae-mediated endocytosis of receptor-bound TGF-β results in rapid degradation of TGF-β1 and suppression of TGF-β responsiveness. […] To test this, we analyzed the lipid raft/caveolae and non-lipid raft localization of TβR-I and TβR-II in the plasma membrane of cells treated with or without cholesterol (50 μg/ml) using sucrose density gradient ultracentrifugation analysis. […]

[3] = test system: hair growth; assay: Hair growth assay in mice; format: in vivo, mice (C57BL/6); details: lotion containing 0.025% cholesterol, topical every two days
Method: FIG. 7. Hair growth promotion in mice topically treated with cholesterol. Mice (female, 6 weeks old) were subjected to hair removal by using hair remover lotion Nair®. The areas after hair removal were treated with the lotion containing vehicle only or 0.025% cholesterol on the first day and every other two days. Photographs were taken immediately after hair removal and prior to topical application with vehicle (a,b,c) or lotion containing cholesterol (d,e,f). Photographs were taken at days 0 (a,d), 10 (b,e) and 18 (c,f). The dark color indicates an early stage of hair growth.
Hair at the back of female mice (C57BL/6, 6-8 weeks old, were removed by using Nair® lotion hair remover. Lotions containing 0.025 and 0.00625% cholesterol and vehicle only were topically applied onto the area where the hair was removed. On the first day and every other day, photographs were taken prior to administration of the lotions. On day 18, the re-grown hair was shaved and weighed.
The hair growth cycle is coordinated with complex processes that are dependent on the interactions of epithelial and dermal components (follicle keratinocytes and dermal papilla cells). The hair growth cycle includes two major phases, growing phase (anagen) and regression phase (catagen). The length and size of hair are dependent on the anagen term in the hair cycle. […]

## CC(C)CCC[C@@H](C)[C@H]1CC[C@H]2[C@@H]3CC=C4C[C@@H](O)CC[C@]4(C)[C@H]3CC[C@]12C [cholesterol]
[1]
  effect on Smad2 nuclear translocation: suppressed
[2]; cholesterol 10 μg/ml or LDL 15 μg protein/ml, without TGF-β1
  TβR-II degradation, treatment alone: did not induce
[2]; cholesterol 10 μg/ml, LDL 15 μg protein/ml, 1 hr, then 50 pM TGF-β 1 hr
  enhancement of TGF-β1-induced degradation of TβR-II: 70%
[3]; day 10
  hair growth: the hair started to grow
[3]; day 18
  hair growth: fully grown hair
